Our source for the IC50 values is patent US11866430B2, “Naphthyridinone compounds useful as T cell activators” (priority 2018, dated 2024).

SMILES strings stand for the structures. Bounds are passed on as bounds.

The target of assay [1] is T1, human DGKζ (Homo sapiens (Human), UniProt Q13574). Briefly: DGKζ LIPGLO assay (extruded liposome substrate). Type of assay: biochemical. In a few lines:
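Recombinant DGKζ (Sf9-expressed, Ni/SEC/SP-purified) preincubated 10 min with extruded 100 nm PC/DAG/PS liposomes in 50 mM MOPS pH 7.5, 100 mM NaCl, 10 mM MgCl2, 1 μM CaCl2, 1 mM DTT. Started with 300 uM ATP solution (stock, pre-addition); 1 hr reaction. ADP-Glo luminescence; IC50 from 11 concentrations.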

The target in assay [2] is T1, human DGKζ. In words: DGKζ assay (detergent/lipid micelle substrate). Type of assay: biochemical. In a few lines: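 Enzymes were baculovirus/Sf9 full-length human DGKα or DGKζ with His tag. The substrate was PS/DAG in octyl glucoside micelles, in MOPS pH 7.5 buffer with NaCl, MgCl2, CaCl2 and DTT.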
Setting [3] is: extruded liposome substrate, read-out: DGKζ LIPGLO IC50.
Setting [4] is: detergent/lipid micelle substrate, read-out: DGKζ IC50.
[5] abbreviates: DGKζ IC50, detergent/lipid micelle substrate.
Setting [6] is: DGKζ LIPGLO IC50, extruded liposome substrate.

T1 sequence (Q13574 other isoform, or with tags, fused parts or gaps): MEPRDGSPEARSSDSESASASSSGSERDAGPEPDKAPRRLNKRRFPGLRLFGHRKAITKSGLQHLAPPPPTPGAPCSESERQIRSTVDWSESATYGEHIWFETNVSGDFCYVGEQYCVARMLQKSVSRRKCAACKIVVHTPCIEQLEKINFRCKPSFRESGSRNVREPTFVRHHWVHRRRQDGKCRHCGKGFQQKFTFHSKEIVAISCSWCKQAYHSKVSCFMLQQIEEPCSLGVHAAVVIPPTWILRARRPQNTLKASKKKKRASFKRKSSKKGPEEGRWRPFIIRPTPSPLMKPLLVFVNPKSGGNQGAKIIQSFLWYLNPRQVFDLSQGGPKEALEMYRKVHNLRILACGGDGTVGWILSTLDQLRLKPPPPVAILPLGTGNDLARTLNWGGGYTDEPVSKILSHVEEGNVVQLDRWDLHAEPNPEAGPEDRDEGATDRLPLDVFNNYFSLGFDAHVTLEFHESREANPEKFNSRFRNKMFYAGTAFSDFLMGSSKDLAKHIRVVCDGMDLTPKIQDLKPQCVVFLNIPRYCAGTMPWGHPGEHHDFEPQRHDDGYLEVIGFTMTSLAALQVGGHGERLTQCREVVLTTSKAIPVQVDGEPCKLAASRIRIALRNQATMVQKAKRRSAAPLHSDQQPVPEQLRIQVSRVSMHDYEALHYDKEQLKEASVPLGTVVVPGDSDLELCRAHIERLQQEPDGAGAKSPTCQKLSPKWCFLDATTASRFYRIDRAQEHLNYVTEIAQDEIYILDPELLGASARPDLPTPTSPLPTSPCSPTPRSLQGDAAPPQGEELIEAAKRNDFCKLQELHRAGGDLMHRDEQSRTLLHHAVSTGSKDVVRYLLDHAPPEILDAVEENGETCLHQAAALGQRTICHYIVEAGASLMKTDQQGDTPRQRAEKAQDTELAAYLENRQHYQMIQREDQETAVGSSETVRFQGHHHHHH

Regarding `COc1ccc2c(n1)c(N1CCN(C(c3ccc(F)cc3)c3ccc(F)cc3OC)CC1)c(C#N)c(=O)n2C` (racemic) [Example 412, 4-{4-[(4-fluoro-2-methoxyphenyl)(4-fluorophenyl)methyl]piperazin-1-yl}-6-methoxy-1-methyl-2-oxo-1,2-dihydro-1,5-naphthyridine-3-carbonitrile], the IC50 at human DGKζ [1] (setting [3]) turned out to be 0.6 µM.
Take `COc1ccccc1C(c1ccc(F)cc1)N1CCN(c2c(C#N)c(=O)n(C)c3ccc(Br)nc23)CC1` (single isomer, unassigned) [Example 13, 6-bromo-4-{4-[(4-fluorophenyl)(2-methoxyphenyl)methyl]piperazin-1-yl}-1-methyl-2-oxo-1,2-dihydro-1,5-naphthyridine-3-carbonitrile]: the IC50 on human DGKζ [2] (setting [4]) is over 240 µM.
On to `COc1cc(F)ccc1C(c1ccc(F)cc1)N1CCN(c2c(C#N)c(=O)n(C)c3ccc(Br)nc23)CC1` (single isomer, unassigned) [Example 17, 6-bromo-4-{4-[(4-fluoro-2-methoxyphenyl)(4-fluorophenyl)methyl]piperazin-1-yl}-1-methyl-2-oxo-1,2-dihydro-1,5-naphthyridine-3-carbonitrile], for which the 50% inhibitory concentration (IC50) amounted to 180 µM on human DGKζ [2] (setting [4]) and 9.4 µM at human DGKζ [1] (setting [3]).
The matching figures for `CC(c1ccc(F)cc1)N1CCN(c2c([N+](=O)[O-])c(=O)n(C)c3ccc(C#N)nc23)CC1` (single isomer, unassigned) [Example 44, 8-(4-(1-(4-fluorophenyl)ethyl)piperazin-1-yl)-5-methyl-7-nitro-6-oxo-5,6-dihydro-1,5-naphthyridine-2-carbonitrile]: 8.9 µM and 1.3 µM.
The matching figures for `C#CCn1c(=O)c([N+](=O)[O-])c(N2CCN(C(c3ccc(F)cc3)c3ccc(F)cc3O)CC2)c2nc(C#N)ccc21` (single isomer, unassigned) [Example 121, 8-(4-((4-fluoro-2-hydroxyphenyl)(4-fluorophenyl)methyl)piperazin-1-yl)-7-nitro-6-oxo-5-(prop-2-yn-1-yl)-5,6-dihydro-1,5-naphthyridine-2-carbonitrile]: 0.18 µM and 0.055 µM.
Turning to `COc1cc(F)ccc1C(c1ccc(F)cc1)N1CCN(c2c([N+](=O)[O-])c(=O)n(C)c3ccc(C#N)nc23)CC1` (single isomer, unassigned) [Example 124, 8-(4-((4-fluoro-2-methoxyphenyl)(4-fluorophenyl)methyl)piperazin-1-yl)-5-methyl-7-nitro-6-oxo-5,6-dihydro-1,5-naphthyridine-2-carbonitrile], the IC50 amounted to 0.9 µM at human DGKζ [2] (setting [5]) and 0.16 µM against human DGKζ [1] (setting [6]).
Consider `C#CCn1c(=O)c([N+](=O)[O-])c(N2CCN(C(C)c3ccc(F)cc3)CC2)c2nc(C#N)ccc21` (single isomer, unassigned) [Example 136, 8-(4-(1-(4-fluorophenyl)ethyl)piperazin-1-yl)-7-nitro-6-oxo-5-(prop-2-yn-1-yl)-5,6-dihydro-1,5-naphthyridine-2-carbonitrile], for which the half-inhibitory concentration (IC50) against human DGKζ [2] (setting [5]) worked out at 0.87 µM; against human DGKζ [1] (setting [6]), 0.21 µM.
With `C#CCn1c(=O)c([N+](=O)[O-])c(N2CCN(C(C)c3ccc(F)cc3)CC2)c2nc(C#N)ccc21` (single isomer, unassigned) [Example 137, 8-(4-(1-(4-fluorophenyl)ethyl)piperazin-1-yl)-7-nitro-6-oxo-5-(prop-2-yn-1-yl)-5,6-dihydro-1,5-naphthyridine-2-carbonitrile], the concentration for half-maximal inhibition (IC50) at human DGKζ [2] (setting [5]) worked out at 4.8 µM; against human DGKζ [1] (setting [6]), 0.85 µM.
Take `C#CCn1c(=O)c([N+](=O)[O-])c(N2CCN(C(CC)c3ccc(F)cc3)CC2)c2nc(C#N)ccc21` (single isomer, unassigned) [Example 141, 8-{4-[1-(4-fluorophenyl)propyl]piperazin-1-yl}-7-nitro-6-oxo-5-(prop-2-yn-1-yl)-5,6-dihydro-1,5-naphthyridine-2-carbonitrile]: the figures for the IC50 on human DGKζ [2] (setting [4]) and at human DGKζ [1] (setting [3]) were 8.9 µM and 1.4 µM, respectively.
The matching figures for `C#CCn1c(=O)c([N+](=O)[O-])c(N2CCN(C(c3ccc(F)cc3)C3CC3)CC2)c2nc(C#N)ccc21` (single isomer, unassigned) [Example 143, 8-(4-(cyclopropyl(4-fluorophenyl)methyl)piperazin-1-yl)-7-nitro-6-oxo-5-(prop-2-yn-1-yl)-5,6-dihydro-1,5-naphthyridine-2-carbonitrile]: 4.2 µM and 1.1 µM.
In the case of `CC(C)C(c1ccc(F)cc1)N1CCN(c2c(C#N)c(=O)n(C)c3ccc(Cl)nc23)CC1` (single isomer, unassigned) [Example 315, 6-chloro-4-{4-[1-(4-fluorophenyl)-2-methylpropyl]piperazin-1-yl}-methyl-2-oxo-1,2-dihydro-1,5-naphthyridine-3-carbonitrile], the half-inhibitory concentration (IC50) on human DGKζ [2] (setting [4]) is over 240 µM; on human DGKζ [1] (setting [3]) it was 1.6 µM.
`Cn1c(=O)c(C#N)c(N2CCN(C(CC(C)(C)C)c3ccc(F)cc3)CC2)c2nc(Cl)ccc21` (single isomer, unassigned) [Example 377, 6-chloro-4-{4-[1-(4-fluorophenyl)-3,3-dimethylbutyl]piperazin-1-yl}-1-methyl-2-oxo-1,2-dihydro-1,5-naphthyridine-3-carbonitrile]: at human DGKζ [1] (setting [3]), the concentration for half-maximal inhibition (IC50) came out at 130 µM.
On the same count and under the same terms, under `Cn1c(=O)c(C#N)c(N2CCN(C(CC(C)(C)C)c3ccc(F)cc3)CC2)c2nc(Cl)ccc21` (single isomer, unassigned) [Example 378, 6-chloro-4-{4-[1-(4-fluorophenyl)-3,3-dimethylbutyl]piperazin-1-yl}-1-methyl-2-oxo-1,2-dihydro-1,5-naphthyridine-3-carbonitrile] stands over 240 µM.
On the same count and under the same terms, under `Cn1c(=O)c(C#N)c(N2CCN(C(c3ccc(F)cc3)C3CCC3)CC2)c2nc(Cl)ccc21` (single isomer, unassigned) [Example 382, 6-chloro-4-{4-[cyclobutyl(4-fluorophenyl)methyl]piperazin-1-yl}-1-methyl-2-oxo-1,2-dihydro-1,5-naphthyridine-3-carbonitrile] stands over 240 µM; under `Cn1c(=O)c(C#N)c(N2CCN(C(c3ccc(F)cc3)C3CCC3)CC2)c2nc(Cl)ccc21` (single isomer, unassigned) [Example 383, 6-chloro-4-{4-[cyclobutyl(4-fluorophenyl)methyl]piperazin-1-yl}-1-methyl-2-oxo-1,2-dihydro-1,5-naphthyridine-3-carbonitrile], over 2.4 µM.
As for `CC(c1ccc(F)cc1)N1CCN(c2c(C#N)c(=O)n(C)c3ccc(Cl)nc23)CC1` (single isomer, unassigned) [Example 387, 6-chloro-4-{4-[1-(4-fluorophenyl)ethyl]piperazin-1-yl}-1-methyl-2-oxo-1,2-dihydro-1,5-naphthyridine-3-carbonitrile], the IC50 on human DGKζ [2] (setting [4]) was over 240 µM; on human DGKζ [1] (setting [3]), 1.6 µM.
For the compound `CC(c1ccc(F)cc1)N1CCN(c2c(C#N)c(=O)n(C)c3ccc(Cl)nc23)CC1` (single isomer, unassigned) [Example 388, 6-chloro-4-{4-[1-(4-fluorophenyl)ethyl]piperazin-1-yl}-1-methyl-2-oxo-1,2-dihydro-1,5-naphthyridine-3-carbonitrile], the IC50 at human DGKζ [2] (setting [4]) was over 240 µM; at human DGKζ [1] (setting [3]) it was 130 µM.
In the case of `COc1cc(F)ccc1C(c1ccc(F)cc1)N1CCN(c2c(C#N)c(=O)n(C)c3ccc(C#N)nc23)CC1` (single isomer, unassigned) [Example 406, 8-{4-[(4-fluoro-2-methoxyphenyl)(4-fluorophenyl)methyl]piperazin-1-yl}-5-methy-6-oxo-5,6-dihydro-L5-naphthyridine-2,7-dicarbonitrile], the IC50 on human DGKζ [1] (setting [3]) amounted to 3.1 µM.
Still for that read-out and setting: under `COc1cc(F)ccc1C(c1ccc(F)cc1)N1CCN(c2c(C#N)c(=O)n(C)c3ccc(C#N)nc23)CC1` (single isomer, unassigned) [Example 407, 8-{4-[(4-fluoro-2-methoxyphenyl)(4-fluorophenyl)methyl]piperazin-1-yl}-5-methy-6-oxo-5,6-dihydro-L5-naphthyridine-2,7-dicarbonitrile] stands 0.45 µM.
In the case of `Cn1c(=O)c(C#N)c(N2CCN(C(c3ccc(F)cc3)c3ccccc3O)CC2)c2nc(C#N)ccc21` (centres unmarked) [Example 11, 8-{4-[(4-fluorophenyl)(2-hydroxyphenyl)methyl]piperazin-1-yl}-5-methyl-6-oxo-5,6-dihydro-1,5-naphthyridine-2,7-dicarbonitrile], the figures for the IC50 at human DGKζ [2] (setting [4]) and against human DGKζ [1] (setting [6]) were 4 µM and 1.8 µM, respectively.
Take `Cn1c(=O)c([N+](=O)[O-])c(N2CCN(CC(O)c3ccc(F)cc3)CC2)c2nc(C#N)ccc21` (centres unmarked) [Example 36, 8-{4-[2-(4-fluorophenyl)-2-hydroxyethyl]piperazin-1-yl}-5-methyl-7-nitro-6-oxo-5,6-dihydro-1,5-naphthyridine-2-carbonitrile]: the 50% inhibitory concentration (IC50) was 68 µM on human DGKζ [2] (setting [4]) and 18 µM at human DGKζ [1] (setting [3]).
As for `CCCCn1c(=O)c([N+](=O)[O-])c(N2CCN(C(c3ccccc3)c3ccccc3)CC2)c2ncccc21` [Example 177, 4-(4-benzhydrylpiperazin-1-yl)-1-butyl-3-nitro-1,5-naphthyridin-2(1H)-one], the 50% inhibitory concentration (IC50) at human DGKζ [1] (setting [3]) came out at 9.7 µM.
With `Cc1ccc2c(n1)c(N1CCN(C(C)c3ccc(F)cc3)CC1)c(Br)c(=O)n2C` (centres unmarked) [Example 224, 3-bromo-4-(4-(1-(4-fluorophenyl)ethyl)piperazin-1-yl)-1,6-dimethyl-1,5-naphthyridin-2(1H)-one], the half-inhibitory concentration (IC50) on human DGKζ [2] (setting [4]) was over 240 µM; on human DGKζ [1] (setting [3]), 20 µM.
As to `Cn1c(=O)c([N+](=O)[O-])c(N2CCN(Cc3cccc4ccccc34)CC2)c2nc(C#N)ccc21` [Example 415, 5-methyl-8-{4-[(naphthalen-1-yl)methyl]piperazin-1-yl}-7-nitro-6-oxo-5,6-dihydro-1,5-naphthyridine-2-carbonitrile], on human DGKζ [1] (setting [3]), the IC50 stood at 0.66 µM.

By IC50 is commonly meant the concentration at which inhibition is half-maximal.
